Several values for one entry are separate records, joined by “and”; a condition that tells them apart may be missing. Equal entries are not always repeated. Inconclusive results and toxic doses are left out.
Tested on: P388 leukemia ip, CD2F1 mice, survival T/C
Test: NCI In Vivo Anticancer Drug Screen. Data for tumor model P388 Leukemia (intraperitoneal) in CD2F1 (CDF1) mice
Details: endpoint: median survival time, higher = longer survival
Summary of the method: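 Mice carrying the transplanted tumor received test compound or vehicle. Survival was recorded in each group, and the value is the treated-group measurement divided by that of the vehicle-treated control group.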

[1] = dose: 100.0 mg/kg/injection, schedule: Q01DX009 (ip), vehicle: saline with Tween-80
[2] = dose: 100.0 mg/kg/injection, schedule: Q04DX003 (ip), vehicle: saline with Tween-80
[3] = dose: 200.0 mg/kg/injection, schedule: Q01DX009 (ip), vehicle: saline with Tween-80
[4] = dose: 200.0 mg/kg/injection, schedule: Q04DX003 (ip), vehicle: saline with Tween-80
[5] = dose: 400.0 mg/kg/injection, schedule: Q04DX003 (ip), vehicle: saline with Tween-80
[6] = dose: 25.0 mg/kg/injection, schedule: Q01DX009 (ip), vehicle: saline
[7] = dose: 50.0 mg/kg/injection, schedule: Q01DX009 (ip), vehicle: saline with Tween-80
[8] = dose: 50.0 mg/kg/injection, schedule: Q01DX009 (ip), vehicle: saline

Structure (SMILES): Cc1c(C)c2c(c(C)c1O)CCC(C)(CCCC(C)CCCC(C)CCCC(C)C)O2 (centres undefined)
- T/C (dose: 42.5 mg/kg/injection, schedule: Q01DX001 (ip), vehicle: olive oil, sesame oil, peanut oil): 104 % of control
- T/C (dose: 50.0 mg/kg/injection, schedule: Q01DX009 (ip), vehicle: olive oil, sesame oil, peanut oil): 106 % of control
- T/C (dose: 85.0 mg/kg/injection, schedule: Q01DX001 (ip), vehicle: olive oil, sesame oil, peanut oil): 98 % of control
- T/C (dose: 100.0 mg/kg/injection, schedule: Q01DX009 (ip), vehicle: olive oil, sesame oil, peanut oil): 100 % of control
- T/C [1]: 100 % of control
- T/C [2]: 100 % of control
- T/C (dose: 170.0 mg/kg/injection, schedule: Q01DX001 (ip), vehicle: olive oil, sesame oil, peanut oil): 100 % of control and 97 % of control
- T/C (dose: 200.0 mg/kg/injection, schedule: Q01DX009 (ip), vehicle: olive oil, sesame oil, peanut oil): 103 % of control
- T/C [3]: 104 % of control
- T/C [4]: 100 % of control
- T/C (dose: 340.0 mg/kg/injection, schedule: Q01DX001 (ip), vehicle: olive oil, sesame oil, peanut oil): 91 % of control
- T/C (dose: 400.0 mg/kg/injection, schedule: Q01DX009 (ip), vehicle: Klucel (hydroxypropylcellulose) (HPC)): 102 % of control
- T/C (dose: 400.0 mg/kg/injection, schedule: Q01DX009 (ip), vehicle: saline with Tween-80): 100 % of control
- T/C [5]: 87 % of control
- T/C (dose: 800.0 mg/kg/injection, schedule: Q01DX009 (ip), vehicle: Klucel (hydroxypropylcellulose) (HPC)): 101 % of control
- T/C (dose: 1200.0 mg/kg/injection, schedule: Q01DX009 (ip), vehicle: Klucel (hydroxypropylcellulose) (HPC)): 106 % of control
- T/C (dose: 1600.0 mg/kg/injection, schedule: Q01DX009 (ip), vehicle: Klucel (hydroxypropylcellulose) (HPC)): 113 % of control
- T/C (dose: 42.5 IU/animal/injection, schedule: Q01DX001 (ip), vehicle: olive oil, sesame oil, peanut oil): 102 % of control and 110 % of control
- T/C (dose: 85.0 IU/animal/injection, schedule: Q01DX001 (ip), vehicle: olive oil, sesame oil, peanut oil): 102 % of control and 105 % of control and 107 % of control
- T/C (dose: 170.0 IU/animal/injection, schedule: Q01DX001 (ip), vehicle: olive oil, sesame oil, peanut oil): 101 % of control and 113 % of control (2×)
- T/C (dose: 340.0 IU/animal/injection, schedule: Q01DX001 (ip), vehicle: olive oil, sesame oil, peanut oil): 102 % of control and 104 % of control

Structure (SMILES): COc1cc2c(cc1OC)-c1c(C)c3ccc(OC)c(NCCO)c3c[n+]1CC2
- T/C (dose: 50.0 mg/kg/injection, schedule: Q04DX003 (ip), vehicle: water): 102 % of control
- T/C (dose: 100.0 mg/kg/injection, schedule: Q04DX003 (ip), vehicle: water): 107 % of control

Structure (SMILES): Cc1ccc(C(C)C)c2c1CN(CCN1COc3c(C(C)C)ccc(C)c3C1)CO2
- T/C (dose: 15.0 mg/kg/injection, schedule: Q01DX005 (ip), vehicle: saline with Tween-80): 99 % of control
- T/C (dose: 30.0 mg/kg/injection, schedule: Q01DX005 (ip), vehicle: saline with Tween-80): 98 % of control
- T/C (dose: 60.0 mg/kg/injection, schedule: Q01DX005 (ip), vehicle: saline with Tween-80): 91 % of control

Structure (SMILES): CC(C)CC(NC(=O)C(Cc1cnc[nH]1)N(C(=O)OCc1ccccc1)C(=O)OCc1ccccc1)C(=O)NN (centres undefined)
- T/C (dose: 50.0 mg/kg/injection, schedule: Q01DX005 (ip), vehicle: saline with Tween-80): 101 % of control
- T/C (dose: 100.0 mg/kg/injection, schedule: Q01DX005 (ip), vehicle: saline with Tween-80): 106 % of control
- T/C (dose: 200.0 mg/kg/injection, schedule: Q01DX005 (ip), vehicle: saline with Tween-80): 106 % of control

Structure (SMILES): C/C=C\C(C)=C/C(C)C(=O)CC(O)CC1CC(=O)NC(=O)C1 (centres undefined)
- T/C (dose: 1.56 mg/kg/injection, schedule: Q01DX009 (ip), vehicle: DMSO): 91 % of control
- T/C (dose: 3.12 mg/kg/injection, schedule: Q01DX009 (ip), vehicle: DMSO): 98 % of control
- T/C (dose: 6.25 mg/kg/injection, schedule: Q01DX009 (ip), vehicle: DMSO): 93 % of control
- T/C (dose: 12.5 mg/kg/injection, schedule: Q01DX009 (ip), vehicle: DMSO): 100 % of control
- T/C (dose: 25.0 mg/kg/injection, schedule: Q01DX009 (ip), vehicle: DMSO): 107 % of control

Structure (SMILES): CCC1=C[C@H]2CN(CCc3c([nH]c4ccccc34)[C@@](C(=O)OC)(c3cc4c(cc3OC)N(C)[C@H]3C(C(=O)OC)=C[C@]5(CC)C=CCN6CC[C@]43[C@@H]65)C2)C1
- T/C (dose: 1.0 mg/kg/injection, schedule: Q01DX001 (ip), vehicle: other): 101 % of control
- T/C (dose: 2.0 mg/kg/injection, schedule: Q01DX001 (ip), vehicle: other): 99 % of control
- T/C (dose: 4.0 mg/kg/injection, schedule: Q01DX001 (ip), vehicle: other): 105 % of control
- T/C (dose: 8.0 mg/kg/injection, schedule: Q01DX001 (ip), vehicle: other): 107 % of control and 120 % of control
- T/C (dose: 16.0 mg/kg/injection, schedule: Q01DX001 (ip), vehicle: distilled water + Tween-80): 124 % of control
- T/C (dose: 16.0 mg/kg/injection, schedule: Q01DX001 (ip), vehicle: other): 113 % of control
- T/C (dose: 64.0 mg/kg/injection, schedule: Q01DX001 (ip), vehicle: distilled water + Tween-80): 171 % of control
- T/C (dose: 64.0 mg/kg/injection, schedule: Q01DX001 (ip), vehicle: other): 121 % of control
- T/C (dose: 128.0 mg/kg/injection, schedule: Q01DX001 (ip), vehicle: other): 183 % of control

Structure (SMILES): CN(C)c1ccc(/C=C(/C#N)c2ccc(Cl)cc2)cc1
- T/C (dose: 50.0 mg/kg/injection, schedule: Q04DX003 (ip), vehicle: saline with Tween-80): 97 % of control
- T/C [2]: 92 % of control
- T/C [4]: 92 % of control
- T/C [5]: 92 % of control

Structure (SMILES): O=C1C=CC(=O)C=C1 (tested in a mixture with another compound)
- T/C (dose: 1.0 mg/kg/injection, schedule: Q01DX009 (ip), vehicle: saline sonified): 100 % of control
- T/C (dose: 2.0 mg/kg/injection, schedule: Q01DX009 (ip), vehicle: saline sonified): 109 % of control
- T/C (dose: 3.0 mg/kg/injection, schedule: Q01DX009 (ip), vehicle: saline sonified): 100 % of control
- T/C (dose: 6.0 mg/kg/injection, schedule: Q01DX009 (ip), vehicle: saline sonified): 100 % of control

Structure (SMILES): CCN(CC)C(=O)C(C)C1=NS(=O)(=O)c2ccccc21 (centres undefined)
- T/C (dose: 75.0 mg/kg/injection, schedule: Q04DX003 (ip), vehicle: Klucel (hydroxypropylcellulose) (HPC)): 101 % of control
- T/C (dose: 150.0 mg/kg/injection, schedule: Q04DX003 (ip), vehicle: Klucel (hydroxypropylcellulose) (HPC)): 99 % of control
- T/C (dose: 300.0 mg/kg/injection, schedule: Q04DX003 (ip), vehicle: Klucel (hydroxypropylcellulose) (HPC)): 100 % of control

Structure (SMILES): COc1ccc(NC(CCN2CCN(CCC(=NC(C)(C)C)Nc3ccc(OC)cc3)CC2)=NC(C)(C)C)cc1
- T/C (dose: 25.0 mg/kg/injection, schedule: Q01DX009 (ip), vehicle: saline with Tween-80): 97 % of control
- T/C [6]: 110 % of control
- T/C (dose: 50.0 mg/kg/injection, schedule: Q01DX005 (ip), vehicle: Klucel (hydroxypropylcellulose) (HPC)): 98 % of control
- T/C (dose: 50.0 mg/kg/injection, schedule: Q01DX009 (ip), vehicle: Klucel (hydroxypropylcellulose) (HPC)): 110 % of control
- T/C [7]: 97 % of control
- T/C [8]: 109 % of control
- T/C (dose: 100.0 mg/kg/injection, schedule: Q01DX005 (ip), vehicle: Klucel (hydroxypropylcellulose) (HPC)): 103 % of control
- T/C (dose: 100.0 mg/kg/injection, schedule: Q01DX009 (ip), vehicle: Klucel (hydroxypropylcellulose) (HPC)): 110 % of control
- T/C [1]: 107 % of control
- T/C (dose: 100.0 mg/kg/injection, schedule: Q01DX009 (ip), vehicle: saline): 97 % of control
- T/C [3]: 116 % of control

Structure (SMILES): C=Cc1c2[n-]c(c1C)/C=c1\[n-]/c(c(C)c1C=C)=C\c1[n-]c(c(CCC(=O)O)c1C)/C=c1\[n-]/c(c(C)c1CCC(=O)O)=C\2.[Pt+4]
- T/C (dose: 50.0 mg/kg/injection, schedule: Q04DX002 (ip), vehicle: saline): 89 % of control
- T/C (dose: 100.0 mg/kg/injection, schedule: Q04DX002 (ip), vehicle: saline): 100 % of control
- T/C (dose: 200.0 mg/kg/injection, schedule: Q04DX002 (ip), vehicle: saline): 97 % of control

Structure (SMILES): S=c1sscc1-c1ccc2ccccc2c1
- T/C [4]: 90 % of control
- T/C [5]: 97 % of control

Structure (SMILES): COCC1(C)CCCC2(C)C1CCC13CCC(OC(C)=O)CC12O3 (centres undefined)
- T/C (dose: 100.0 mg/kg/injection, schedule: Q01DX001 (ip), vehicle: saline): 102 % of control
- T/C (dose: 200.0 mg/kg/injection, schedule: Q01DX001 (ip), vehicle: saline): 108 % of control
- T/C (dose: 400.0 mg/kg/injection, schedule: Q01DX001 (ip), vehicle: saline): 110 % of control

Structure (SMILES): Cc1ccc(NC(=O)Oc2cc(C)c(Cl)cc2C)c([N+](=O)[O-])c1
- T/C [7]: 95 % of control
- T/C [1]: 87 % of control
- T/C [3]: 91 % of control

Structure (SMILES): COC1=Nc2ccccc2N2CCN=C12
- T/C (dose: 12.5 mg/kg/injection, schedule: Q01DX009 (ip), vehicle: saline): 86 % of control
- T/C [6]: 100 % of control
- T/C [8]: 100 % of control

Source: PubChem BioAssay AID330 (DTP/NCI, 2004)
